Source: patent US20110189260A1, “USE OF ZINC CHELATORS TO INHIBIT BIOFILM FORMATION” (UNIVERSITY OF CINCINNATI, priority 2008, published 2011)
Values joined by “and” are separate entries in the source; they are usually repeats but may differ in a detail not shown here. Identical values can stand only once. “Also recorded” adds a separate entry of the source.

Legend:
[1] = system: S. epidermidis RP62A biofilms; assay: RP62A biofilms on polystyrene visualized with crystal violet (FIG. 3A, 3C, 4, 7, 8); assay type: cell-based; settings: RP62A; for effect of divalent cation salt on biofilm inhibition by DTPA: up to 60 μM salt, FIG. 7
Procedure: (§1) FIG. 3. (A) S. epidermidis RP62A biofilms formed on polystyrene and were visualized with crystal violet; addition of the Zn^2+ chelator DTPA (≧30 μM) inhibits biofilm formation. Representative wells have been scanned (bottom). Untreated (“RP62A”) and vehicle (“HCl”) controls are shown. Error bars show standard deviation (* indicates p<0.05 relative to untreated control; n=3); (B) Methicillin-resistant S. aureus USA300 biofilms form on fibronectin-coated plates but are inhibited by addition of DTPA (≧30 μM). (*: p<0.05; n=4); (C) Addition of 5-20 μM ZnCl2 at a minimal inhibitory dose of DTPA (30 μM) rescues biofilm formation by RP62A.
FIG. 4. […] (*: p<0.05 relative to RP62A control at the relevant Zn^2+ concentration; n=3); (B) Dose response of biofilm inhibition by MBP-Brpt1.5 at a fixed 1 mM ZnCl2 concentration. (*: p<0.0005; n=3); (C) The “zinc zipper” model for intercellular adhesion in staphylococcal biofilms mediated by zinc-dependent self-association of G5 domains.
FIG. 7. […] All data at 30 μM DTPA show statistically significant decreases compared to no-treatment control (RP62A). Statistically significant increases over the 0 μM MnCl2/30 μM DTPA datapoint are marked with an asterisk (*).
To test the physiological role of Zn^2+-mediated G5 adhesion in the formation of staphylococcal biofilms, both S. epidermidis and S. aureus biofilms were grown in culture in the presence or absence of the Zn^2+ chelator diethylenetriaminepentaacetic acid (DTPA). DTPA was non-toxic at all concentrations tested (up to 100 μM). S. epidermidis strain RP62A formed robust biofilms when cultured in media alone, but biofilm growth was inhibited by non-toxic doses of DTPA (≧30 μM) (FIG. 3A).
To determine whether Zn^2+-dependent biofilm formation is specifically dependent upon G5 domain-mediated self-assembly, soluble Brpt1.5 was added to S. epidermidis RP62A biofilms as a maltose-binding protein (MBP) fusion. Because of the higher Zn^2+ concentrations required to induce dimerization in the short construct compared to full-length Aap, inhibition by MBP-Brpt1.5 was tested at Zn^2+ concentrations ranging up to 1 mM. RP62A biofilms were inhibited by soluble MBP-Brpt1.5 in the presence of 0.75 and 1 mM ZnCl2, whereas addition of MBP alone had no effect (FIG. 4A). […] Thus, addition of even a single intact zinc adhesion module in a soluble form is capable of inhibiting biofilm formation, highlighting the role of this domain as a Zn^2+-dependent adhesion module in staphylococcal biofilms.

[2] = system: Methicillin-resistant S. aureus USA300 biofilms; assay: USA300 biofilms on fibronectin-coated plates (FIG. 3B, 3D); assay type: cell-based; settings: USA300, at minimal inhibitory dose of DTPA (30 μM), FIG. 3D
Procedure: as §1
S. aureus strain USA300, which is responsible for recent epidemic outbreaks of community-acquired methicillin-resistant S. aureus (MRSA) infections, formed biofilms on fibronectin-coated plates. As observed for S. epidermidis, the MRSA biofilms were inhibited by Zn^2+ chelation (≧30 μM DTPA) (FIG. 3B). […] Like S. epidermidis, the MRSA strain USA300 could be rescued by the addition of 15-20 μM ZnCl2 (FIG. 3D). Importantly, at the minimal inhibitory concentration of DTPA (30 μM), biofilm growth by both staphylococcal species could be rescued by the addition of 5-20 μM ZnCl2; these Zn^2+ concentrations are similar to the physiological range in human plasma (12-16 μM resting concentration).

[3] = system: Methicillin-Resistant Staphylococcus epidermidis Strain RP62a; assay: Biofilm formation assay in 96 well plates, crystal violet, absorbance at 570 nm (Example 8); assay type: cell-based; settings: 18-24 hours, 37° C.
Procedure: S. epidermidis strain RP62a (ATCC 35984) was obtained as a glycerol stock from ATCC. 3 ml overnight cultures were grown in tryptic soy broth (TSB, BD Biomedical), shaking at 37° C., and cultures were diluted 1:200 in TSB for use in the biofilm assay.
Each chelator (prepared in Examples 1-6) was added directly to a 96 well microtiter plate in a series of dilutions. 20 μl of each stock solution (200, 400, 800, 1600, 3200, 6400, 13000, or 26000 μM chelator) was added to each well. 200 μl of the 1:200 dilution of RP62a bacterial culture (as previously specified) was added to each well. Controls with bacterial culture media only and bacterial culture media plus vehicle controls only (i.e., final concentrations 10 mM HCl, 10% ethanol, or 10 mM NaOH) were added to wells alone without chelator. The 96 well plates were then incubated 18-24 hours statically at 37° C. Media was aspirated by pipet and wells were washed twice with filtered water. The plates were dried by inversion for 1 hour, and stained with 0.1% crystal violet for 15 minutes. Crystal violet was then aspirated by pipet and washed once with filtered water. The plates were then read on a spectrophotometer at a wavelength of 570 nm. An absorbance greater than 0.1 indicates biofilm formation.

[4] = system: Staphylococcus aureus Strain Rosenbach SA113; assay: Biofilm formation assay in FBS pre-treated 96 well plates, crystal violet (Example 9); assay type: cell-based; settings: SA113, 2% glucose, 36-40 hours
Procedure: In addition, 96 well microtiter plates were pre-treated with fetal bovine serum (FBS) at 4° C. for at least 24 hours prior to use. The FBS was aspirated prior to addition of chelators and glucose for the assay. […] The 96 well plates were then incubated 36-40 hours statically at 37° C. Media was aspirated by pipet and wells were washed twice with filtered water. The plates were dried by inversion for 1 hour, and stained with 0.1% crystal violet for 15 minutes. Crystal violet was then aspirated by pipet and washed once with filtered water. The plates were then read on a spectrophotometer at a wavelength of 570 nm.

[5] = system: Staphylococcus aureus Strain COL; assay: Biofilm formation assay in FBS pre-treated 96 well plates, crystal violet (Example 10); assay type: cell-based; settings: 2% sucrose, 36-40 hours
Procedure: 3 ml overnight cultures were grown in blood-heart infusion broth (BHI) shaking at 37° C., where cultures were diluted 1:25 for use in the biofilm assay.
2% sucrose (20 μl from a 20% sucrose stock) was added to each well prior to the addition of the bacterial culture to promote biofilm formation. In addition, 96 well microtiter plates were pre-treated with fetal bovine serum (FBS) at 4° C. for at least 24 hours prior to use. The FBS was aspirated prior to addition of chelators and sucrose for the assay. […] 20 μl of each stock solution (200, 400, 800, 1600, 3200, 6400, 13000, or 26000 μM chelator) was added to each well. 200 μl of the 1:25 dilution of COL bacterial culture (as previously specified) was added to each well. Controls with bacterial culture media only and bacterial culture media plus vehicle controls only (i.e, final concentrations 10 mM HCl, 10% ethanol, and 10 mM NaOH) were added to wells alone without chelator. The 96 well plates were then incubated 36-40 hours statically at 37° C. Media was aspirated by pipet and wells were washed twice with filtered water. The plates were dried by inversion for 1 hour, and stained with 0.1% crystal violet for 15 minutes. Crystal violet was then aspirated by pipet and washed once with filtered water. The plates were then read on a spectrophotometer at a wavelength of 570 nm. An absorbance greater than 0.1 indicates biofilm formation.

[6] = biological target: Aap (Accumulation-associated protein) on Staphylococcus epidermidis strain RP62A cells (Staphylococcus epidermidis); assay: cell-based or functional assay
[7] = system: Methicillin-Resistant Staphylococcus aureus Strain USA300; assay: Biofilm formation assay in fibronectin pre-treated 96 well plates, crystal violet (Example 11); assay type: cell-based; settings: USA300, 2% glucose, 36-40 hours
Procedure: S. aureus strain USA300 was obtained from Daniel Hassett (University of Cincinnati) as a glycerol stock. 3 ml overnight cultures were grown in blood-heart infusion broth (BHI) shaking at 37° C., where cultures were diluted 1:25 for use in the biofilm assay. 2% glucose (20 ul from a 20% glucose stock) was added to each well prior to the addition of bacterial culture to promote biofilm formation. In addition, 96 well microtiter plates were pre-treated with human fibronectin (BD biomedical purchased from Fisher scientific). The fibronectin was aspirated prior to addition of chelators and glucose for the assay. Each chelator (prepared in Examples 1-6) was added directly to a 96 well microtiter plate in a series of dilutions. 20 μl of each stock solution (200, 400, 800, 1600, 3200, 6400, 13000, or 26000 μM chelator) was added to each well. 200 μl of the 1:25 dilution of USA300 bacterial culture dilution (as previously specified) were added to each well. Controls with bacterial culture media only and bacterial culture media plus vehicle controls only (final concentrations 10 mM HCl, 10% ethanol, and 10 mM NaOH) were added to wells alone without chelator. The 96 well plates were then incubated 36-40 hours statically at 37° C. Media was aspirated by pipet and wells were washed twice with filtered water. The plates were dried by inversion for 1 hour, and stained with 0.1% crystal violet for 15 minutes. Crystal violet was then aspirated by pipet and washed once with filtered water. The plates were then read on a spectrophotometer at a wavelength of 570 nm. An absorbance greater than 0.1 indicates biofilm formation.

| Molecule | effect of divalent cation salt on biofilm inhibition by DTPA ([1]; 30 μM DTPA) | chelator concentration at which biofilms were diminished but not cleared [3] [µM] | chelator concentration at which biofilms were diminished but not cleared [4] [µM] | chelator concentration at which biofilms were inhibited (absorbance of 0.1 or less) [4] [µM] | chelator concentration at which biofilms were diminished but not cleared [5] [µM] | chelator concentration at which biofilms were inhibited (absorbance of 0.1 or less) [3] [µM] | other results |
| --- | --- | --- | --- | --- | --- | --- | --- |
| [Cl-].[Cl-].[Mg+2] [MgCl2] | does not reverse; also recorded: no effect | – | – | – | – | – | – |
| [Cl][Mn][Cl] [MnCl2] | partial rescue | – | – | – | – | – | concentration that effected partial rescue of biofilm formation ([1]; 30 μM DTPA, FIG. 7D): ≥ 10 µM |
| [Cl-].[Cl-].[Zn+2] [ZnCl2] | – | – | – | – | – | – | concentration that rescues biofilm formation ([1]; at minimal inhibitory dose of DTPA (30 μM), FIG. 3C): 5 to 20 µM; concentration that rescues biofilm formation [2]: 15 to 20 µM |
| O=C(O)CNCCNCC(=O)O [EDDA, ethylenediamine-N,N′-diacetic acid] | – | 80 | 20 | 640 | 160 | – | – |
| CCN(CC)C(=S)S [DEDTC, diethyldithiocarbamate] | – | 20 | 80 | 80 | 20 | 1300 | chelator concentration above which biofilms were inhibited (absorbance of 0.1 or less) [5]: > 80 µM |
| MBP-Brpt1.5 (soluble Brpt1.5 as a maltose-binding protein fusion) (from UniProt Q8CQD9 1089-1296) | – | – | – | – | – | – | concentration that completely abolished RP62A biofilm formation at 1 mM ZnCl2 [6]: 10 µM and 22 µM |
| c1ccc(CN(CCN(Cc2ccccn2)Cc2ccccn2)Cc2ccccn2)nc1 [TPEN, N,N,N′,N′-tetrakis(2-pyrdiylmethyl)ethylenediamine] | – | – | 20 | 40 | – | 20 | chelator concentration at which biofilms were diminished but not cleared [7]: 20 µM |
| c1cnc2c(c1)ccc1cccnc12 [1,10-phenanthroline] | – | 80 | 320 | 1300 | 80 | 640 | chelator concentration above which biofilms were inhibited (absorbance of 0.1 or less) [7]: > 1.3 mM; chelator concentration at which biofilms were diminished but not cleared [7]: 160 µM; chelator concentration above which biofilms were inhibited (absorbance of 0.1 or less) [5]: > 320 µM |
| [Cl-].[Cl-].[Sr+2] [SrCl2] | does not reverse; also recorded: no effect | – | – | – | – | – | – |
| O=C(O)CN(CCN(CC(=O)O)CC(=O)O)CC(=O)O [EDTA, ethylenediaminetetra-acetic acid] | – | 40 | 320 | – | 20 | 320 | chelator concentration above which biofilms were inhibited (absorbance of 0.1 or less) [7]: > 2.6 mM; chelator concentration at which biofilms were diminished but not cleared [7]: 1300 µM; chelator concentration above which biofilms were inhibited (absorbance of 0.1 or less) [5]: > 160 µM |
| [Ca+2].[Cl-].[Cl-] [CaCl2] | does not reverse; also recorded: no effect | – | – | – | – | – | – |
| MBP-Brpt1.5: soluble Brpt1.5 as a maltose-binding protein (MBP) fusion (protein, left off: large carriers) VDGDSITSTEEIPFDKKREFDPNLAPGTEKVVQKGEPGTKTITTPTTKNPLTGEKVGEGEPTEKITKQPVDEIVHYGGEQIPQGHKDEFDPNAPVDSKTEVPGKPGVKNPDTGEVVTPPVDDVTKYGPVDGDSITSTEEIPFDKKREFDPNLAPGTEKVVQKGEPGTKTITTPTTKNPLTGEKVGEGKSTEKVTKQPVDEIVEYGPTK | – | – | – | – | – | – | inhibition of biofilms by soluble protein ([1]; fixed 750 μM ZnCl2, FIG. 8): Dose-dependent biofilm inhibition; concentration that completely abolished biofilm formation ([1]; fixed 1 mM ZnCl2, FIG. 4B): 10 to 22 µM; inhibition of biofilms by soluble protein ([1]; in the presence of 0.75-1 mM ZnCl2, FIG. 4A): inhibits RP62A biofilms in a dose-dependent manner; also recorded: inhibited |
